The results in this text go back to ChEMBL document CHEMBL5465560, “Selectivity Literature for EUbOPEN Chemogenomic Library” (2024).

Assay [1] has as its target T1, Serine/threonine-protein kinase LATS2 (Homo sapiens) (UniProt Q9NRM7).
T1 sequence (whole entry): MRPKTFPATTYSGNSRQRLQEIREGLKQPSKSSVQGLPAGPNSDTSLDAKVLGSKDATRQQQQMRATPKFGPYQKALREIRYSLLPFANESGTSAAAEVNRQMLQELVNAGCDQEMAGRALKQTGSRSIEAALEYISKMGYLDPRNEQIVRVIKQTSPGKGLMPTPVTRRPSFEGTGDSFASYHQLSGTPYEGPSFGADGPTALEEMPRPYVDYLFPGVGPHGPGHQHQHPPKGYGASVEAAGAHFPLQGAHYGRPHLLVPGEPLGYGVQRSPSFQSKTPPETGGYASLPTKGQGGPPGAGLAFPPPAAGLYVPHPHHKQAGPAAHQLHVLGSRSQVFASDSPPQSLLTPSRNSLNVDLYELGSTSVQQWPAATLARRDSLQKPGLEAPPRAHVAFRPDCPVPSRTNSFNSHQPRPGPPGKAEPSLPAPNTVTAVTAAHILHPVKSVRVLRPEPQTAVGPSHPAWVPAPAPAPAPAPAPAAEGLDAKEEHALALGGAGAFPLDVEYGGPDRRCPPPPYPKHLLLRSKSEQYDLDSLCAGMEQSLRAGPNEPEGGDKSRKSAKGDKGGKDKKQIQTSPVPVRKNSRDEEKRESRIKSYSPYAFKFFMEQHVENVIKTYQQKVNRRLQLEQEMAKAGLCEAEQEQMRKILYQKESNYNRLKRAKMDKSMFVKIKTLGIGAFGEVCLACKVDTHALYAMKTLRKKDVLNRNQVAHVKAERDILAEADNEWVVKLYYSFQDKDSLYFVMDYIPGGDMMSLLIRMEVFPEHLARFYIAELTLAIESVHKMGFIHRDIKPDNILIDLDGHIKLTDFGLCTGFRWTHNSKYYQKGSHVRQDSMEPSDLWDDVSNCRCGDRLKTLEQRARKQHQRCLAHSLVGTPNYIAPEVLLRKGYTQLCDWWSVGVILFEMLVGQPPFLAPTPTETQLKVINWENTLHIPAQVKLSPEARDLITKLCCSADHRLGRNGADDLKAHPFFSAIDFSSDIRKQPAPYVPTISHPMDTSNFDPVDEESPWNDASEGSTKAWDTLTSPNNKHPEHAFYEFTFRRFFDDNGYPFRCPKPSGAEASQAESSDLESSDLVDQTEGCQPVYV
To be noted: at 10 µM.

Assay [2] concerns the target T2, Mitogen-activated protein kinase kinase kinase 19 (Homo sapiens) (UniProt Q56UN5).
T2 sequence (whole entry): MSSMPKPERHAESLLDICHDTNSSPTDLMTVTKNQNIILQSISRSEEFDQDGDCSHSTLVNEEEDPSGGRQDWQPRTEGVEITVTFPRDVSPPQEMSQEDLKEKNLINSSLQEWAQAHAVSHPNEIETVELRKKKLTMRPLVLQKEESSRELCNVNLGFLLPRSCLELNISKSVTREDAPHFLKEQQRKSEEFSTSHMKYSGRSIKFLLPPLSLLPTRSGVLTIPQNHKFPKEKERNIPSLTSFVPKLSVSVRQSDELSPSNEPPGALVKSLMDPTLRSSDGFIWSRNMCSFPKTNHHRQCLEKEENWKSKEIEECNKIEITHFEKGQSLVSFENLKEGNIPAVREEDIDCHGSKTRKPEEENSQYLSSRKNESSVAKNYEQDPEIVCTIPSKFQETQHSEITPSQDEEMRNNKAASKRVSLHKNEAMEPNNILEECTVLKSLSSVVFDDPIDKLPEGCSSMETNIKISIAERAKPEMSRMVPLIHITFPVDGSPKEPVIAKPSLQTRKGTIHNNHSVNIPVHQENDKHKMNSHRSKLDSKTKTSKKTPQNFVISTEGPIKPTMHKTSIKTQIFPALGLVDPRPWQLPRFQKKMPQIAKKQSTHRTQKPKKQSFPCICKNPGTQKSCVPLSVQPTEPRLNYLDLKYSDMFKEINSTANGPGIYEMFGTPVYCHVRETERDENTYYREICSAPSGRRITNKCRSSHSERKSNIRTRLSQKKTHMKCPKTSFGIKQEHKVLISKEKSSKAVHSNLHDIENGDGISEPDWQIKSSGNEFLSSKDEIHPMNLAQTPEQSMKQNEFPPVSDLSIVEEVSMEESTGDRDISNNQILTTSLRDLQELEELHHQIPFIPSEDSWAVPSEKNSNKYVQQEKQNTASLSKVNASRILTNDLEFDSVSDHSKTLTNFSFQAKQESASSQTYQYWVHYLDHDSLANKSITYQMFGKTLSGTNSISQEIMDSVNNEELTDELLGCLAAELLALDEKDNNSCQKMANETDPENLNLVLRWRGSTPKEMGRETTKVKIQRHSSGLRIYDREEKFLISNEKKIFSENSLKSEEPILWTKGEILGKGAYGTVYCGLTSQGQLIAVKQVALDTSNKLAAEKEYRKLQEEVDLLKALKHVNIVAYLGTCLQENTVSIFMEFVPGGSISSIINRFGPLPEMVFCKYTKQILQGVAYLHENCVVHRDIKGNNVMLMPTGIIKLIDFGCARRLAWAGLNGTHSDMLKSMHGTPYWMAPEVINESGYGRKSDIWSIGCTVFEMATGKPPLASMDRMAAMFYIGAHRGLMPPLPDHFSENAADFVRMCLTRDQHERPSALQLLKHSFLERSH
Put plainly: Selectivity interaction (KinomeScan (DiscoverX)) EUB0000229b MAP3K19. To be noted: at 10 µM.

Molecules are shown by their SMILES.

`CCN(CC)CCCCNc1ncc2cc(-c3cc(OC)cc(OC)c3)c(NC(=O)NC(C)(C)C)nc2n1` had a % of control in assay [1] of 100%.
In turn, `COc1cc(N(C)c2ccnc3ccc(C(F)(F)F)cc23)cc(OC)c1OC` returned a % binding in assay [2] of 94%.
